From paper PMC12167813, “Characterization of a two-component kinase that initiates the bacterial catabolism of hydroxyphenylethanones” (The Journal of Biological Chemistry, 2025)

How the values were obtained:
HpeHI [1] = test system: T1, HpeHI; assay: continuous spectrophotometric assay, low-concentration rates verified by LC-MS; assay type: biochemical, Rhodococcus rhodochrous; conditions: apparent; 500 μM ATP, 2.0 mM MgCl2, 25 μM MnCl2, HEPES pH 7.5, I = 20 mM, 30 °C; 0.05 μM HpeH, 0.10 μM HpeI; upper bound
T1 construct: gene hpeH; two components made separately in E. coli, N-terminal His tags cut with TEV; phenolic site in HpeH
From the text: continuous spectrophotometric assay, low-concentration rates verified by LC-MS on HpeHI

[2] = target: HpeH (Rhodococcus rhodochrous GD02); assay: mass photometry; Refeyn TwoMP; samples at 20 nM in the standard assay buffer (low ionic strength); acquisition 60 s
[3] = target: HpeH (Rhodococcus rhodochrous GD02); assay: SEC-MALS; Superdex 200; 50 µl of HpeH (12.5 µM), HpeI (25 µM) or both, incubated at room temperature for at least 20 min; 10 mM Hepes pH 7.5, 0.50 mM TCEP, 2.0 mM MgCl2, 0.25 mM MnCl2, with 20 mM or 200 mM NaCl; also with AMP-PNP
HpeHI [4] = test system: T1, HpeHI; assay: continuous spectrophotometric assay; assay type: biochemical, Rhodococcus rhodochrous; conditions: apparent; 500 μM ATP, 2.0 mM MgCl2, 25 μM MnCl2, HEPES pH 7.5, I = 20 mM, 30 °C; 0.05 μM HpeH, 0.10 μM HpeI
From the text: continuous spectrophotometric assay on HpeHI

Row | Km (HpeHI [1]) [µM] | Molecule | Km (HpeHI [4]) [µM] | further results
1 | < 0.3 | CC(=O)c1ccc(O)cc1 [4-hydroxyacetophenone] |  | 
2 | < 0.3 | COc1cc(C(C)=O)ccc1O [acetovanillone] |  | 
3 |  | HpeH (enzyme) |  | stoichiometry N [2]: 2; stoichiometry N [3]: 2
4 |  | O=Cc1ccc(O)cc1 [4-hydroxybenzaldehyde] | 9.6 | 
5 |  | COc1cc(C=O)ccc1O [vanillin] | 10.3 | 
